Test results as given in US20200172491A1, “SUBSTITUTED 5-(HET-)ARYLPYRAZOLAMIDES AND SALTS THEREOF AND THEIR USE AS HERBICIDAL ACTIVE SUBSTANCES” (Bayer CropScience Aktiengesellschaft, priority 2017, published 2020).

Experiments:
Assay type in all cases: in vivo
Amaranthus retroflexus [1] = experiment: Post-emergence herbicidal action; details: 320 g/ha, rated after about 3 weeks, 100% = plants have died, 0% = like control plants
Description: (§1) Seeds of monocotyledonous and dicotyledonous weeds and crop plants were placed in sandy loam in plastic or wood-fiber pots, covered with soil and cultivated in a greenhouse under controlled growth conditions. 2 to 3 weeks after sowing, the test plants were treated at the one-leaf stage. The compounds of the invention, formulated in the form of wettable powders (WP) or as emulsion concentrates (EC), were then sprayed onto the green parts of the plants as aqueous suspension or emulsion with addition of 0.5% additive at a water application rate of 600 l/ha (converted). After the test plants had been kept in the greenhouse under optimum growth conditions for about 3 weeks, the activity of the preparations was rated visually in comparison to untreated controls. For example, 100% activity=the plants have died, 0% activity=like control plants. Tables B1 to B6 below show the effects of selected compounds of the general formula (I) according to Table A1 at an application rate of 320 g/ha on various harmful plants, which were obtained by the aforementioned experimental procedure.

Stellaria media [2] = experiment: Post-emergence herbicidal action; details: 320 g/ha, rated after about 3 weeks, 100% = plants have died, 0% = like control plants
Description: as §1

Viola tricolor [3] = experiment: Post-emergence herbicidal action; details: 320 g/ha, rated after about 3 weeks, 100% = plants have died, 0% = like control plants
Description: as §1

Amaranthus retroflexus [4] = experiment: Pre-emergence herbicidal action; details: 320 g/ha, scored after about 3 weeks, 100% = plants have died, 0% = like control plants
From the text: (§2) Seeds of monocotyledonous and dicotyledonous weed plants and crop plants were placed in plastic or wood-fiber pots and covered with soil. The compounds of the invention, formulated in the form of wettable powders (WP) or as emulsion concentrates (EC), were then applied to the surface of the covering soil as aqueous suspension or emulsion with addition of 0.5% additive at a water application rate equivalent to 600 l/ha. After the treatment, the pots were placed in a greenhouse and kept under good growth conditions for the test plants. After about 3 weeks, the effect of the preparations is scored visually in comparison with untreated controls as percentages. For example, 100% activity=the plants have died, 0% activity=like control plants. Tables B7 to B11 below show the effects of selected compounds of the general formula (I) according to Table A1 at an application rate of 320 g/ha on various harmful plants, which were obtained by the aforementioned experimental procedure.

Matricaria inodora [5] = experiment: Pre-emergence herbicidal action; details: 320 g/ha, scored after about 3 weeks, 100% = plants have died, 0% = like control plants
From the text: as §2

Stellaria media [6] = experiment: Pre-emergence herbicidal action; details: 320 g/ha, scored after about 3 weeks, 100% = plants have died, 0% = like control plants
From the text: as §2

Ipomoea purpurea = experiment: Post-emergence herbicidal action; details: 320 g/ha, rated after about 3 weeks, 100% = plants have died, 0% = like control plants
Description: as §1

Matricaria inodora [7] = experiment: Post-emergence herbicidal action; details: 320 g/ha, rated after about 3 weeks, 100% = plants have died, 0% = like control plants
Description: as §1

Veronica persica = experiment: Pre-emergence herbicidal action; details: 320 g/ha, scored after about 3 weeks, 100% = plants have died, 0% = like control plants
From the text: as §2

Viola tricolor [8] = experiment: Pre-emergence herbicidal action; details: 320 g/ha, scored after about 3 weeks, 100% = plants have died, 0% = like control plants
From the text: as §2

SMILES	herbicidal activity on Amaranthus retroflexus (visual rating vs untreated controls) (Amaranthus retroflexus [1])	herbicidal activity on Stellaria media (visual rating vs untreated controls) (Stellaria media [2])	herbicidal activity on Viola tricolor (visual rating vs untreated controls) (Viola tricolor [3])	herbicidal activity on Amaranthus retroflexus (visual rating vs untreated controls) (Amaranthus retroflexus [4])	herbicidal activity on Matricaria inodora (visual rating vs untreated controls) (Matricaria inodora [5])	herbicidal activity on Stellaria media (visual rating vs untreated controls) (Stellaria media [6])	herbicidal activity on Ipomoea purpurea (visual rating vs untreated controls) (Ipomoea purpurea)	herbicidal activity on Matricaria inodora (visual rating vs untreated controls) (Matricaria inodora [7])	herbicidal activity on Veronica persica (visual rating vs untreated controls) (Veronica persica)	herbicidal activity on Viola tricolor (visual rating vs untreated controls) (Viola tricolor [8])
Cc1nn(C)c(-c2ccc(F)cc2Cl)c1C(=O)Nc1cc(Cl)ccc1Cl [I-017]	100%	100%	90%	100%	80%	–	–	–	–	–
Cc1nn(C)c(-c2cc(F)ccc2Cl)c1C(=O)Nc1c(Cl)cccc1Cl [I-014]	80%	90%	100%	–	–	–	–	–	–	–
Cc1nn(C)c(-c2ccc(F)cc2Cl)c1C(=O)NC1CCCCC1 [I-018]	80%	–	–	–	–	–	–	–	–	–
Cc1nn(C)c(-c2ccc(F)cc2Cl)c1C(=O)NC1CCCC1 [I-003]	100%	–	–	–	90%	80%	–	–	–	–
Cc1nn(C)c(-c2ccc(F)cc2Cl)c1C(=O)Nc1ccc(F)cc1 [I-007]	100%	80%	–	90%	–	100%	–	–	–	–
Cc1nn(C)c(-c2ccc(F)cc2Cl)c1C(=O)Nc1cccc(F)c1 [I-027]	100%	100%	100%	100%	100%	100%	100%	100%	100%	–
Cc1nn(C)c(-c2ccc(F)cc2Cl)c1C(=O)Nc1ncccc1F [I-011]	90%	80%	–	80%	–	80%	–	–	–	–
Cc1cccnc1NC(=O)c1c(C)nn(C)c1-c1ccc(F)cc1Cl [I-010]	100%	100%	100%	100%	100%	–	–	–	–	–
Cc1nn(C)c(-c2ccc(F)cc2Cl)c1C(=O)Nc1cc(Cl)ccc1F [I-021]	100%	100%	100%	100%	100%	100%	–	–	–	100%
Cc1nn(C)c(-c2ccc(F)cc2)c1C(=O)Nc1c(Cl)cccc1Cl [I-033]	80%	–	80%	–	–	–	–	–	–	–
Cc1nn(C)c(-c2ccc(F)cc2Cl)c1C(=O)Nc1ccccc1F [I-006]	100%	100%	100%	100%	90%	100%	–	–	–	100%
Cc1nn(C)c(-c2ccc(F)cc2Cl)c1C(=O)Nc1cncc(F)c1 [I-032]	100%	100%	100%	100%	100%	–	90%	100%	–	–
Cc1nn(C)c(-c2ccc(F)cc2Cl)c1C(=O)Nc1c(F)cc(F)cc1F [I-025]	100%	90%	100%	100%	100%	100%	80%	100%	–	100%
Cc1nn(C)c(-c2ccc(F)cc2Cl)c1C(=O)Nc1ccccc1 [I-002]	100%	100%	100%	100%	100%	100%	80%	100%	–	100%
Cc1cccc(Cl)c1NC(=O)c1c(C)nn(C)c1-c1ccc(F)cc1Cl [I-028]	100%	100%	100%	100%	100%	100%	100%	100%	100%	–
Cc1ccccc1NC(=O)c1c(C)nn(C)c1-c1ccc(F)cc1Cl [I-016]	100%	100%	100%	100%	100%	100%	100%	100%	80%	–
Cc1nn(C)c(-c2ccc(F)cc2Cl)c1C(=O)Nc1ccc(F)nc1 [I-023]	90%	100%	–	–	90%	100%	–	–	–	–
Cc1nn(C)c(-c2ccc(F)cc2Cl)c1C(=O)Nc1ccc(Cl)cc1 [I-024]	100%	100%	100%	–	–	–	–	–	–	–
CCn1nc(C)c(C(=O)Nc2c(Cl)cccc2Cl)c1-c1ccc(F)cc1Cl [I-026]	90%	–	80%	–	–	–	–	–	–	–
Cc1nn(C)c(-c2ccc(F)cc2Cl)c1C(=O)Nc1cccnc1F [I-031]	100%	100%	100%	100%	100%	90%	–	–	–	80%
Cc1nn(C)c(-c2ccc(F)cc2Cl)c1C(=O)Nc1cc(Cl)cc(Cl)c1 [I-020]	100%	–	100%	100%	100%	90%	–	–	–	80%
